Among the data in patent publication US20230149398A1, “TOPICAL PHARMACEUTICAL COMPOSITIONS COMPRISING IMIDAZO[1,2-B]PYRIDAZINE COMPOUNDS” (BenevolentAI Bio Limited, priority 2020, published 2023) are Mean percent viability values, retold here.

The series relates to RHE cultures (ZenSkin). Put plainly: RHE irritancy test (MTT viability of RHE cultures). The following applies: 30 μL applied for 1 hour, MTT after 42 hours, relative to negative control (water), n=3. The class given is cell-based.

Method: RHE cultures (ZenSkin®) (surface area=0.33 cm^2) were equilibrated overnight in a humidified incubator at 37° C. and 5% CO2. The next day RHE were removed from the incubator and inspected for residual liquid on the apical surface. Excess moisture was removed with sterile cotton swab and 30 μL of a topical pharmaceutical composition was applied to triplicate cultures (n=3). Sterile water served as a negative control and 1% Triton X-100 served as positive control. Once treated, RHE cultures were returned to the incubator for 1 hour and then gently washed to remove test substance. The washed inserts were then transferred to new 12 well plates prefilled with fresh 0.5 mL media. […]
After 42-hour incubation, the tissue cultures were transferred to a new plate containing fresh MTT substrate in tissue media and placed in the incubator at 37° C. and 5% CO2 for 2 hours. […] Optical density was measured at 570 nm without using a reference filter. […]
Percent cell viability was calculated as follows: 100×[OD(sample)/OD(neg control)]. […] The test formulations were classified as irritant or non-irritant based on EU and GHS classification, according to which an irritant (R38/Category 2) is determined if the mean relative tissue viability of tissues exposed to test material is reduced below 50% of the negative control.

triton X-100 registered a Mean percent viability of under 20%.
